Read-outs that look alike come from different tables or passages of the source.
Legend:
Type in all cases: in vivo
[1] = test system: Beet Armyworm (Spodoptera exigua, LAPHEG); assay: Bioassays on Beet Armyworm (BAW), 128-well diet tray assay; details: Spodoptera exigua
In short: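 Larvae at second instar are exposed on dried, compound-treated diet (50 μg/cm^2, delivered in 90:10 acetone-water) in eight replicate wells. After five to seven days at 25° C., 14:10 light-dark, percent mortality in each well is scored and the eight wells averaged.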

[2] = test system: Cabbage Looper (Trichoplusia ni, TRIPNI); assay: Bioassays on Cabbage Looper (CL), 128-well diet tray assay; details: Trichoplusia ni
In short: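 Percent mortality, averaged across eight replicate wells, after second-instar larvae (1–5 per well) fed for five to seven days on diet dosed at 50 μg/cm^2. Compound was applied in acetone-water 90:10 and dried; trays kept vented at 25° C under 14:10 photoperiod.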

[3] = test system: Yellow Fever Mosquito (Aedes aegypti, AEDSAE); details: for YFM rating: Table ABC / ABC-DP rating
In short: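 Compounds from DMSO master plates (4000 ppm stock) diluted in 90:10 water/acetone, then dispensed into six replicate plates and infested with ~1-day-old Aedes aegypti larvae in liver-powder water. Held covered at room temperature for 3 days; each well scored for larval mortality and graded on a rating scale.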

[4] = Beet Armyworm, rating class, read-out: BAW
[5] = Cabbage Looper, rating class, read-out: CL
[6] = Yellow Fever Mosquito, rating class
[7] = Table ABC: Biological Results, species BAW, read-out: BAW
[8] = Table ABC: Biological Results, species CL, read-out: CL
[9] = Table ABC: Biological Results, species YFM
[10] = Beet Armyworm, Table ABC / ABC-DP rating, read-out: BAW rating
[11] = Cabbage Looper, Table ABC / ABC-DP rating, read-out: CL rating

O=C(Nc1ccc(F)c(NC(=O)C(Cl)CCl)c1F)c1cc(NC(=O)[C@H]2[C@H](c3ccc(F)c(C(F)(F)F)c3)C2(Cl)Cl)ccc1Cl (stereo partly drawn) [F1728, 2-Chloro-5-((1R,3R)-2,2-dichloro-3-(4-fluoro-3-(trifluoromethyl)phenyl)cyclopropane-1-carboxamido)-N-(3-(2,3-dichloropropanamido)-2,4-difluorophenyl)benzamide]
pest or weed control at 50 µg/cm2 [1, 4]: 50 to 100% | pest or weed control at 50 µg/cm2 [2, 5]: 50 to 100% | YFM [3, 6]: B (More than 0 – Less than 80)

COc1ccc(CNc2c(F)ccc(NC(=O)c3cc(NC(=O)[C@H]4[C@H](c5ccc(F)c(C(F)(F)F)c5)C4(Cl)Cl)ccc3Cl)c2F)cc1 (relative stereo) [F1096, trans-2-Chloro-5-(2,2-dichloro-3-(4-fluoro-3-(trifluoromethyl)phenyl)cyclopropane-1-carboxamido)-N-(2,4-difluoro-3-((4-methoxybenzyl)amino)phenyl)benzamide]
pest or weed control at 50 µg/cm2 [1, 7]: 50 to 100% | pest or weed control at 50 µg/cm2 [2, 8]: 50 to 100% | YFM [3, 9]: A (80–100)

O=C(Nc1c(F)ccc(NC(=O)C(F)(F)F)c1F)c1cc(NC(=O)[C@H]2[C@H](c3ccc(F)c(C(F)(F)F)c3)C2(Cl)Cl)ccc1F [F1560, 5-((1R,3R)-2,2-Dichloro-3-(4-fluoro-3-(trifluoromethyl)phenyl)cyclopropane-1-carboxamido)-N-(2,6-difluoro-3-(2,2,2-trifluoroacetamido)phenyl)-2-fluorobenzamide]
pest or weed control at 50 µg/cm2 [1, 4]: 50 to 100% | pest or weed control at 50 µg/cm2 [2, 5]: 50 to 100% | YFM [3, 6]: A (80–100)

O=C(NN=Cc1ccccn1)c1cc(NC(=O)[C@H]2[C@H](c3cc(Cl)cc(Cl)c3)C2(Cl)Cl)ccc1Cl (relative stereo) [F3002, trans-2,2-Dichloro-N-(4-chloro-3-(2-(pyridin-2-ylmethylene)hydrazine-1-carbonyl)phenyl)-3-(3,5-dichlorophenyl)cyclopropane-1-carboxamide]
mortality at 50 µg/cm2 ([1]; 168 h, second instar larvae, 50 μg/cm^2 of test molecule on artificial diet, 25° C., five to seven days, average of eight wells, read-out: BAW % Control (or Mortality) rating): 50 to 100% | pest or weed control at 50 µg/cm2 [1, 10]: 50 to 100% | mortality at 50 µg/cm2 ([2]; 168 h, second instar larvae, 50 μg/cm^2 of test molecule on artificial diet, 25° C., five to seven days, average of eight wells, read-out: CL % Control (or Mortality) rating): 50 to 100% | pest or weed control at 50 µg/cm2 [2, 11]: 50 to 100% | YFM rating ([3]; Yellow Fever Mosquito): A (80–100) | YFM % Control (or Mortality) rating ([3]; about 1 day-old larvae, 4000 ppm master solution diluted with 90:10 water/acetone, 15 μL per well plus 220 μL larval mixture, 3 days, mortality): A (80–100)

O=C(Nc1ccc(F)c(NC(=O)C(F)(F)F)c1F)c1cc(NC(=O)[C@H]2[C@H](c3cc(Cl)cc(Cl)c3)C2(Cl)Cl)cc(F)c1F [F1441, 5-((1R,3R)-2,2-Dichloro-3-(3,5-dichlorophenyl)cyclopropane-1-carboxamido)-N-(2,4-difluoro-3-(2,2,2-trifluoroacetamido)phenyl)-2,3-difluorobenzamide]
pest or weed control at 50 µg/cm2 [1, 4]: 50 to 100% | pest or weed control at 50 µg/cm2 [2, 5]: 50 to 100% | YFM [3, 6]: A (80–100)

CS(=O)(=O)N(c1c(F)ccc(NC(=O)c2cc(NC(=O)[C@H]3[C@H](c4ccc(F)c(C(F)(F)F)c4)C3(Cl)Cl)ccc2Cl)c1F)S(C)(=O)=O [F1277, 2-chloro-5-((1R,3R)-2,2-dichloro-3-(4-fluoro-3-(trifluoromethyl)phenyl)cyclopropane-1-carboxamido)-N-(2,4-difluoro-3-(N-(methylsulfonyl)methylsulfonamido)phenyl)benzamide]
pest or weed control at 50 µg/cm2 [1, 7]: 50 to 100% | pest or weed control at 50 µg/cm2 [2, 8]: 50 to 100% | YFM [3, 9]: A (80–100)

O=C(CCF)Nc1c(F)ccc(NC(=O)c2cc(NC(=O)[C@H]3[C@H](c4ccc(F)c(C(F)(F)F)c4)C3(Cl)Cl)ccc2Cl)c1F [F1735, 2-Chloro-5-((1R,3R)-2,2-dichloro-3-(4-fluoro-3-(trifluoromethyl)phenyl)cyclopropane-1-carboxamido)-N-(2,4-difluoro-3-(3-fluoropropanamido)phenyl)benzamide]
pest or weed control at 50 µg/cm2 [1, 4]: 50 to 100% | pest or weed control at 50 µg/cm2 [2, 5]: 50 to 100% | YFM [3, 6]: A (80–100)

O=C(NCC(F)(F)C(F)(F)F)c1c(F)ccc(NC(=O)[C@H]2[C@H](c3ccc(F)c(Cl)c3)C2(Cl)Cl)c1F (relative stereo) [F2018, trans-3-(2,2-Dichloro-3-(3-chloro-4-fluorophenyl)cyclopropane-1-carboxamido)-2,6-difluoro-N-(2,2,3,3,3-pentafluoropropyl)benzamide]
pest or weed control at 50 µg/cm2 [1, 10]: 50 to 100% | pest or weed control at 50 µg/cm2 [2, 11]: 50 to 100% | YFM rating ([3]; Yellow Fever Mosquito): A (80–100)

CC(=O)Nc1c(F)ccc(NC(=O)c2cc(NC(=O)[C@H]3[C@H](c4ccc(Cl)c(Cl)c4)C3(Cl)Cl)cc(F)c2F)c1F [F1442, N-(3-Acetamido-2,4-difluorophenyl)-5-((1R,3R)-2,2-dichloro-3-(3,4-dichlorophenyl)cyclopropane-1-carboxamido)-2,3-difluorobenzamide]
pest or weed control at 50 µg/cm2 [1, 4]: 50 to 100% | pest or weed control at 50 µg/cm2 [2, 5]: 50 to 100% | YFM [3, 6]: A (80–100)

Nc1c(F)ccc(NC(=O)c2cc(NC(=O)[C@H]3[C@H](c4cc(C(F)(F)F)cc(C(F)(F)F)c4)C3(Cl)Cl)ccc2Cl)c1F (relative stereo) [F1791, trans-N-(3-Amino-2,4-difluorophenyl)-5-(3-(3,5-bis(trifluoromethyl)phenyl)-2,2-dichlorocyclopropane-1-carboxamido)-2-chlorobenzamide]
pest or weed control at 50 µg/cm2 [1, 10]: 50 to 100% | pest or weed control at 50 µg/cm2 [2, 11]: 50 to 100% | YFM rating ([3]; Yellow Fever Mosquito): A (80–100)

C=CCN(C(=O)C(F)F)c1c(F)ccc(NC(=O)c2cc(NC(=O)[C@H]3[C@H](c4ccc(F)c(C(F)(F)F)c4)C3(Cl)Cl)ccc2Cl)c1F [F1482, N-(3-(N-Allyl-2,2-difluoroacetamido)-2,4-difluorophenyl)-2-chloro-5-((1R,3R)-2,2-dichloro-3-(4-fluoro-3-(trifluoromethyl)phenyl)cyclopropane-1-carboxamido)benzamide]
pest or weed control at 50 µg/cm2 [1, 4]: 50 to 100% | pest or weed control at 50 µg/cm2 [2, 5]: 50 to 100% | YFM [3, 6]: A (80–100)

CN(NC(=O)c1cc(NC(=O)[C@H]2[C@H](c3cc(Cl)cc(Cl)c3)C2(Cl)Cl)ccc1Cl)c1ccccc1 (relative stereo) [F2557, trans-2,2-Dichloro-N-(4-chloro-3-(2-methyl-2-phenylhydrazine-1-carbonyl)phenyl)-3-(3,5-dichlorophenyl)cyclopropane-1-carboxamide]
pest or weed control at 50 µg/cm2 [1, 10]: 50 to 100% | pest or weed control at 50 µg/cm2 [2, 11]: 50 to 100% | YFM rating ([3]; Yellow Fever Mosquito): A (80–100)

O=C(CCC(F)(F)F)Nc1c(F)ccc(NC(=O)c2cc(NC(=O)[C@H]3[C@H](c4ccc(F)c(C(F)(F)F)c4)C3(Cl)Cl)ccc2Cl)c1F [F1800, 2-Chloro-5-((1R,3R)-2,2-dichloro-3-(4-fluoro-3-(trifluoromethyl)phenyl)cyclopropane-1-carboxamido)-N-(2,4-difluoro-3-(4,4,4-trifluorobutanamido)phenyl)benzamide]
pest or weed control at 50 µg/cm2 [1, 10]: 50 to 100% | pest or weed control at 50 µg/cm2 [2, 11]: 50 to 100% | YFM rating ([3]; Yellow Fever Mosquito): A (80–100)

O=C(NCC(F)(F)F)c1cc(NC(=O)[C@H]2[C@H](c3cc(F)c(F)c(Br)c3)C2(Cl)Cl)ccc1Cl (relative stereo) [F2003, trans-5-(3-(3-Bromo-4,5-difluorophenyl)-2,2-dichlorocyclopropane-1-carboxamido)-2-chloro-N-(2,2,2-trifluoroethyl)benzamide]
pest or weed control at 50 µg/cm2 [1, 10]: 50 to 100% | pest or weed control at 50 µg/cm2 [2, 11]: 50 to 100% | YFM rating ([3]; Yellow Fever Mosquito): A (80–100)

O=C(Nc1ccc(F)cc1F)c1cc(NC(=O)[C@H]2[C@@H](c3cc(F)c(Cl)c(Cl)c3)C2(Cl)Cl)ccc1Cl (relative stereo) [F1025, cis-2-Chloro-5-(2,2-dichloro-3-(3,4-dichloro-5-fluorophenyl)cyclopropane-1-carboxamido)-N-(2,4-difluorophenyl)benzamide]
pest or weed control at 50 µg/cm2 [1, 7]: 50 to 100% | pest or weed control at 50 µg/cm2 [2, 8]: 50 to 100% | YFM [3, 9]: A (80–100)
